According to patent US20240366514A1, “PHARMACEUTICAL COMPOSITIONS OF OZANIMOD” (ZYDUS LIFESCIENCES LIMITED, priority 2021, published 2024):

Test system: TNBS induced colitis model in rat
Test: Pharmacodynamic (PD) study in TNBS induced colitis model in rat
Format: in vivo, Wistar rat male
Description: However, these differences in PK parameters were not observed in Pharmacodynamic (PD) study (Experiment 02) conducted in TNBS induced colitis model in rat. […] In this study, the efficacy parameters measured were colon weight to length ratio, colonic […] score (which includes sum of Adhesion score, Stricture score, Ulcer, Wall thickness) and Lymphocyte count. Colon weight to length ratio and macroscopic colon disease score were determined at the end of the study, whereas Lymphocyte count in circulation relative to vehicle treated TNBS challenged diseased animals (Vehicle control) was assessed 24 h after the last dose. […] The reasons for the similar efficacy response even at the differences in PK profile between both the formulations could be due to receptor saturation of S1P1 receptors overexpressed at the intestine at the dose of 1 mg/kg administered in both the treatment groups. […] The cardiac side effects such as Bradyarrhythmia and Atrioventricular Conduction Delays, which are associated with high Cmax from immediate-release formulation, get reduced or eliminated with the use of delayed-release formulation without affecting efficacy. Thus, the delayed-release formulation may also offer the skipping or reduce frequency of up-titration scheme.

In the case of Nc1ccc(O)c(C(=O)O)c1 [Mesalamine], the “Lymphocyte count, % Inhibition (Mean ± SEM)” value (24 h after the last dose, relative to vehicle treated TNBS challenged animals) is reported as 13.39 ± 21.66%, the inhibition at 150 mg/kg (144 h, oral once a day for 6 days, IR 1 mg/kg, DR 0.89 mg/kg, Mesalamine 150 mg/kg, versus vehicle control, read-out: Colon Macroscopic Score, % Inhibition (Mean ± SEM)) is reported as 56.5 ± 5.02% and the “Lymphocyte count (10^3/μL), Observation (Mean ± SEM)” value (circulating, 24 h after the last dose, IR 1 mg/kg, DR 0.89 mg/kg, Mesalamine 150 mg/kg oral for 6 days) is reported as 7.6 ± 1.9 10^3/μL. The “Colon Weight to Length ratio (mg/cm), Observation (Mean ± SEM)” value (oral once a day for 6 consecutive days, IR 1 mg/kg, DR 0.89 mg/kg, Mesalamine 150 mg/kg, end of study) was 120.44 ± 4.22 mg/cm, the “Colon Macroscopic Score [Sum of scores of Adhesion score, Stricture score, Ulcer, Wall thickness], Observation (Mean ± SEM)” value (oral once a day for 6 days, IR 1 mg/kg, DR 0.89 mg/kg, Mesalamine 150 mg/kg, end of study) was 2.5 ± 0.29 and the “Colon Weight to Length ratio, % Inhibition (Mean ± SEM)” value (oral once a day for 6 days, IR 1 mg/kg, DR 0.89 mg/kg, Mesalamine 150 mg/kg, versus vehicle control) was 41.75 ± 2.04%.
